Test results reported in PubChem BioAssay AID248 (DTP/NCI, 2004).
Several values for one entry are separate records, joined by “and”; a condition that tells them apart may be missing. Identical values can stand only once. Toxic doses and inconclusive results are not listed. Rule as the data show it: active = T/C of 150% or more; inactive = T/C below 125%.

Tested on: L1210 leukemia ip in BDF1 mice, survival T/C
Experiment: NCI In Vivo Anticancer Drug Screen. Data for tumor model L1210 Leukemia (intraperitoneal) in B6D2F1 (BDF1) mice
Details: endpoint: mean survival time, higher = longer survival
In short: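 Transplantable tumor model; survival measured in treated vs vehicle control mice. Value = treated/control.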

[1] = dose: 25.0 mg/kg/injection, schedule: Q01DX009 (ip), vehicle: saline with Tween-80
[2] = dose: 200.0 mg/kg/injection, schedule: Q01DX009 (ip), vehicle: saline
[3] = dose: 100.0 mg/kg/injection, schedule: Q01DX009 (ip), vehicle: saline
[4] = dose: 100.0 mg/kg/injection, schedule: Q04DX003 (ip), vehicle: saline
[5] = dose: 200.0 mg/kg/injection, schedule: Q04DX003 (ip), vehicle: saline
[6] = dose: 400.0 mg/kg/injection, schedule: Q01DX009 (ip), vehicle: saline
[7] = dose: 400.0 mg/kg/injection, schedule: Q04DX003 (ip), vehicle: saline
[8] = dose: 50.0 mg/kg/injection, schedule: Q04DX003 (ip), vehicle: Klucel (hydroxypropylcellulose) (HPC)
[9] = dose: 100.0 mg/kg/injection, schedule: Q04DX003 (ip), vehicle: Klucel (hydroxypropylcellulose) (HPC)
[10] = dose: 200.0 mg/kg/injection, schedule: Q04DX003 (ip), vehicle: Klucel (hydroxypropylcellulose) (HPC)
[11] = dose: 400.0 mg/kg/injection, schedule: Q04DX003 (ip), vehicle: Klucel (hydroxypropylcellulose) (HPC)
[12] = dose: 100.0 mg/kg/injection, schedule: Q01DX001 (ip), vehicle: carboxymethylcellulose (CMC)
[13] = dose: 200.0 mg/kg/injection, schedule: Q01DX001 (ip), vehicle: carboxymethylcellulose (CMC)
[14] = dose: 400.0 mg/kg/injection, schedule: Q01DX001 (ip), vehicle: carboxymethylcellulose (CMC)

Measured: T/C

CC(=O)C(CN(C)C)c1ccccc1 (stereo not given)
inactive: dose: 12.5 mg/kg/injection, schedule: Q01DX009 (ip), vehicle: saline with Tween-80 91 % of control | dose: 12.5 mg/kg/injection, schedule: Q04DX002 (ip), vehicle: saline with Tween-80 102 % of control | [1] 98 % of control | dose: 25.0 mg/kg/injection, schedule: Q04DX002 (ip), vehicle: saline with Tween-80 102 % of control | dose: 50.0 mg/kg/injection, schedule: Q01DX009 (ip), vehicle: saline with Tween-80 89 % of control | dose: 50.0 mg/kg/injection, schedule: Q01DX009 (ip), vehicle: saline 103 % of control | dose: 50.0 mg/kg/injection, schedule: Q04DX002 (ip), vehicle: saline with Tween-80 109 % of control | [2] 90 % of control

CCSCCSCC
inactive: [3] 98 % of control | [4] 101 % of control | [2] 98 % of control | [5] 97 % of control | [6] 96 % of control | [7] 97 % of control

CCCc1ccccc1NC(=O)NCCCl
inactive: dose: 25.0 mg/kg/injection, schedule: Q04DX003 (ip), vehicle: Klucel (hydroxypropylcellulose) (HPC) 106 % of control | [8] 101 % of control | [9] 105 % of control and 86 % of control | [10] 89 % of control | [11] 88 % of control

CCCCCCC(=O)N(CCC)CCC
inactive: [12] 112 % of control | dose: 100.0 mg/kg/injection, schedule: Q01DX009 (ip), vehicle: carboxymethylcellulose (CMC) 98 % of control and 100 % of control | dose: 100.0 mg/kg/injection, schedule: Q04DX003 (ip), vehicle: carboxymethylcellulose (CMC) 97 % of control | [13] 102 % of control | dose: 200.0 mg/kg/injection, schedule: Q01DX009 (ip), vehicle: carboxymethylcellulose (CMC) 97 % of control and 104 % of control | dose: 200.0 mg/kg/injection, schedule: Q04DX003 (ip), vehicle: carboxymethylcellulose (CMC) 98 % of control

CC1CNC2C(C)C3C(CC4C5CCC6CC(N=Cc7ccccc7)C(O)CC6(C)C5CCC43C)OC2(O)C1 (stereo not given)
inactive: dose: 100.0 mg/kg/injection, schedule: Q01DX001 (ip), vehicle: Klucel (hydroxypropylcellulose) (HPC) 87 % of control | dose: 400.0 mg/kg/injection, schedule: Q01DX001 (ip), vehicle: Klucel (hydroxypropylcellulose) (HPC) 91 % of control

COc1ccc(C(=O)/C=C/c2ccc(N(C)C)cc2)cc1
inactive: dose: 37.5 mg/kg/injection, schedule: Q04DX003 (ip), vehicle: saline 95 % of control | dose: 75.0 mg/kg/injection, schedule: Q04DX003 (ip), vehicle: saline 90 % of control | dose: 150.0 mg/kg/injection, schedule: Q04DX003 (ip), vehicle: saline 89 % of control

CCCCOCCOCCOCCO
inactive: [3] 98 % of control | [4] 98 % of control | [2] 98 % of control | [5] 98 % of control | [6] 102 % of control | [7] 97 % of control

COCC(=O)OCCCCCOC(=O)COC
inactive: [8] 104 % of control | [9] 102 % of control | [10] 96 % of control | [11] 88 % of control

COc1cc(/C=C/C=C/C(=O)N2CCCCC2)ccc1O
inactive: dose: 100.0 mg/kg/injection, schedule: Q01DX009 (ip), vehicle: saline with Tween-80 88 % of control | dose: 200.0 mg/kg/injection, schedule: Q01DX009 (ip), vehicle: saline with Tween-80 92 % of control

CC(O)(c1ccccc1)c1ccccc1S(=O)(=O)Nc1ccccc1 (stereo not given)
inactive: [12] 101 % of control | [13] 93 % of control | [14] 95 % of control

CC(C#N)c1cccc(C(=O)O)c1 (stereo not given)
inactive: [12] 105 % of control | [13] 105 % of control | [14] 96 % of control

CC(=O)[O][Sn]([CH2]c1ccccc1)([CH2]c1ccccc1)[CH2]c1ccccc1
inactive: dose: 0.5 mg/kg/injection, schedule: Q04DX003 (ip), vehicle: saline with Tween-80 97 % of control | dose: 1.0 mg/kg/injection, schedule: Q04DX003 (ip), vehicle: saline with Tween-80 96 % of control | dose: 3.0 mg/kg/injection, schedule: Q04DX003 (ip), vehicle: saline with Tween-80 99 % of control | dose: 12.0 mg/kg/injection, schedule: Q01DX009 (ip), vehicle: saline with Tween-80 97 % of control | [1] 100 % of control

O=C1c2ccccc2C(=O)N1CCOc1ccc([N+](=O)[O-])cc1
inactive: dose: 100.0 mg/kg/injection, schedule: Q01DX001 (ip), vehicle: gum acacia 92 % of control | dose: 200.0 mg/kg/injection, schedule: Q01DX001 (ip), vehicle: gum acacia 99 % of control | dose: 400.0 mg/kg/injection, schedule: Q01DX001 (ip), vehicle: gum acacia 92 % of control

O=CC(CCN1CCCCC1)(CCN1CCCCC1)c1cccc2ccccc12
inactive: dose: 25.0 mg/kg/injection, schedule: Q04DX002 (ip), vehicle: Klucel (hydroxypropylcellulose) (HPC) 107 % of control | dose: 50.0 mg/kg/injection, schedule: Q04DX002 (ip), vehicle: Klucel (hydroxypropylcellulose) (HPC) 100 % of control | dose: 100.0 mg/kg/injection, schedule: Q01DX009 (ip), vehicle: Klucel (hydroxypropylcellulose) (HPC) 105 % of control | dose: 100.0 mg/kg/injection, schedule: Q04DX002 (ip), vehicle: Klucel (hydroxypropylcellulose) (HPC) 98 % of control
